In US9540427B2, “Peptide-based stat inhibitor” (The United States of America, as represented by the …, priority 2007, dated 2017):

Tests used:
[1] = test system: normal mammary epithelial cells MCF-10A; assay: MTT assay of growth and viability, MCF-10A; type: cell-based; conditions: escalating doses
Experimental: Three breast cancer cell lines (MDA-MB-231, T47D, and MDA-MB-435) and normal breast epithelial (MCF-10A) were treated with escalating doses of STAT3-Hel2A-2 (SEQ ID NO: 20). Cell proliferation and cell death were estimated by MTT assay.

[2] = test system: STAT3-deficient MEFs; assay: Survival of STAT3-deficient MEFs; type: cell-based, mouse; conditions: STAT3-deficient MEFs (data not shown)
Description: (§1) Furthermore, survival of normal mouse embryonic fibroblasts (MEFs) and STAT3-deficient MEFs was not affected by treatment with STAT3-Hel2A-2 (data not shown). […] This observation potentially provides a basis for an enhanced therapeutic ratio, based on differential inhibitor effects

[3] = test system: normal mouse embryonic fibroblasts (MEFs); assay: Survival of normal mouse embryonic fibroblasts; type: cell-based; conditions: normal MEFs (data not shown)
Description: as §1

In the case of `CCCC[C@H](NC(=O)[C@H](CCCNC(=N)N)NC(=O)[C@H](CCCNC(=N)N)NC(=O)[C@H](CC(N)=O)NC(=O)[C@@H]1CCCN1C(=O)[C@H](Cc1ccccc1)NC(=O)[C@H](Cc1c[nH]c2ccccc12)NC(=O)[C@@H](NC(=O)[C@H](CCCCN)NC(=O)[C@@H](NC(=O)[C@H](CCC(N)=O)NC(=O)[C@H](CCCNC(=N)N)NC(=O)[C@H](Cc1ccc(O)cc1)NC(=O)[C@H](CC(C)C)NC(=O)[C@H](CCCCN)NC(=O)[C@H](Cc1c[nH]cn1)NC(=O)[C@H](CC(C)C)NC(=O)[C@H](CCC(N)=O)NC(=O)[C@H](CCC(=O)O)NC(=O)[C@H](CC(C)C)NC(=O)[C@H](Cc1ccc(O)cc1)NC(=O)[C@H](CCCNC(=N)N)NC(=O)[C@@H](NC(=O)[C@H](CC(=O)O)NC(=O)[C@@H](N)CC(C)C)[C@@H](C)O)[C@@H](C)CC)[C@@H](C)CC)C(=O)N[C@@H](CCCCN)C(=O)N[C@@H](Cc1c[nH]c2ccccc12)C(=O)N[C@@H](CCCCN)C(=O)N[C@@H](CCCCN)C(N)=O` [Hel2A-2-Pen], the “Growth and viability of normal cells” value [1] is reported as “not altered significantly”, the “Survival of STAT3-deficient cells” value [2] is reported as “not affected” and the “Survival of normal cells” value [3] is reported as “not affected”.
